Source: USRE45128E1, “Cephalotaxane derivatives and their processes of preparation and purification” (IVAX International GmbH, priority 1998, dated 2014)

What was measured:
[1] = continuous intravenous central infusion (CIVI), patients with CML; cited from earlier work
[2] = Stability of cephalotaxine in acidic solution; assay type: physicochemical; settings: several days in solution at pH 1-4 at 20° C. (personal observation)
Procedure: This alkaloid is relatively insensitive to basic media. On the other hand, several authors describe a certain level of sensitivity to acids and to quaternization of the nitrogen with methyl iodide, leading to a racemization by simultaneous inversion of the 3 asymmetric centres and of the nitrogen [D. J. Abraham, R. D. Rosensten and E. L. McGandy, Tetrahedron Letters, 4085 (1969)]. However, a period of several days in solution at pH 1-4 at 20° C. leaves this structure intact (personal observation).

[3] = test system: chronic myeloid leukaemias that have become resistant to alpha-interferon; settings: patients suffering from chronic myeloid leukaemias resistant to alpha-interferon; cited from earlier work
[4] = doses twenty times lower than that for Taxol; cited from earlier work

| SMILES | extra-hematologic toxicity [1] | structure after a period in acidic solution [2] | reinduction of full haematological remissions [3] | daily doses at and above which active [4] |
| --- | --- | --- | --- | --- |
| COC(=O)C[C@](O)(CCC(C)(C)O)C(=O)O[C@@H]1C(OC)=C[C@]23CCCN2CCc2cc4c(cc2[C@H]13)OCO4 [HA, harringtonine] | very mild |  |  |  |
| COC1=C[C@]23CCCN2CCc2cc4c(cc2[C@@H]3C1O)OCO4 (single isomer, unassigned; (-)) [cephalotaxine, (−)-cephalotaxine] |  | intact |  |  |
| COC(=O)C[C@](O)(CCCC(C)(C)O)C(=O)OC1C(OC)=C[C@]23CCCN2CCc2cc4c(cc2[C@H]13)OCO4 (stereo partly drawn) [HHT, cephalotaxine, 4-methyl (2R)-2-hydroxy-2-(4-hydroxy-4-methylpentyl)butanedioate (ester)] | very mild |  | 70% | ≥ 2.5 mg/m^2 of body area per 24 hours |
